Test system: MV-4-11 cells
Assay: Gene expression microarray analysis (Affymetrix PrimeView) and GSEA
Format: cell-based, human
Design: RFU PODN (11730768_x_at) / Fold change /veh PODN (11730768_x_at) / RFU LINC00158 (11744669_a_at) / Fold change /veh LINC00158 (11744669_a_at) / RFU DUSP10 (11751237_a_at) / Fold change /veh DUSP10 (11751237_a_at) / RFU ID3 (11757404_x_at) / Fold change /veh ID3 (11757404_x_at) / RFU PLEKHG5 (11737974_s_at) / Fold change /veh PLEKHG5 (11737974_s_at) / RFU LRRC4B (11730491_at) / Fold change /veh LRRC4B (11730491_at) / RFU GIMAP4 (11747438_a_at) / Fold change /veh GIMAP4 (11747438_a_at) / RFU KRT8 (11758183_x_at) / Fold change /veh KRT8 (11758183_x_at) / RFU CNN1 (11734310_a_at) / Fold change /veh CNN1 (11734310_a_at) / RFU VPS37D (11726825_at) / Fold change /veh VPS37D (11726825_at) / RFU C10orf10 (11716522_x_at) / Fold change /veh C10orf10 (11716522_x_at) / RFU KIR2DL2 /// KIR2DL4 /// KIR2DL5A /// KIR2DL5B /// KIR2DS1 /// KIR2DS2 /// KIR2DS3 /// KIR2DS4 /// KIR3DL3 /// KIR3DL3 /// KIR3DS1 (11738374_at) / Fold change /veh KIR2DL2 /// KIR2DL4 /// KIR2DL5A /// KIR2DL5B /// KIR2DS1 /// KIR2DS2 /// KIR2DS3 /// KIR2DS4 /// KIR3DL3 /// KIR3DL3 /// KIR3DS1 (11738374_at) / RFU C1QL1 (11718748_at) / Fold change /veh C1QL1 (11718748_at) / RFU TMPRSS4 (11747572_a_at) / Fold change /veh TMPRSS4 (11747572_a_at) / RFU HAMP (11756126_x_at) / Fold change /veh HAMP (11756126_x_at) / RFU RNFT2 (11725882_a_at) / Fold change /veh RNFT2 (11725882_a_at) / RFU NR4A2 (11747474_a_at) / Fold change /veh NR4A2 (11747474_a_at) / RFU ABCC12 (11746883_a_at) / Fold change /veh ABCC12 (11746883_a_at) / RFU TMEM136 (11760407_x_at) / Fold change /veh TMEM136 (11760407_x_at) / RFU CLDN22 /// WWC2 (11732394_at) / Fold change /veh CLDN22 /// WWC2 (11732394_at) / RFU HLA-DPB1 (11760878_x_at) / Fold change /veh HLA-DPB1 (11760878_x_at) / RFU SPINT1 (11716480_a_at) / Fold change /veh SPINT1 (11716480_a_at) / RFU GAP43 (11754022_s_at) / Fold change /veh GAP43 (11754022_s_at) / RFU A4GNT (11735810_at) / Fold change /veh A4GNT (11735810_at) / RFU PRB3 (11715151_x_at) / Fold change /veh PRB3 (11715151_x_at) / RFU TUBB4B (11761932_at) / Fold change /veh TUBB4B (11761932_at) / RFU CAPN14 (11732068_a_at) / Fold change /veh CAPN14 (11732068_a_at) / RFU TMCC2 (11721928_a_at) / Fold change /veh TMCC2 (11721928_a_at) / RFU IRGQ (11745062_a_at) / Fold change /veh IRGQ (11745062_a_at) / RFU FAM174B (11720279_a_at) / Fold change /veh FAM174B (11720279_a_at) / RFU TMPRSS4 (11748680_a_at) / Fold change /veh TMPRSS4 (11748680_a_at) / RFU FAM212B (11763350_a_at) / Fold change /veh FAM212B (11763350_a_at) / RFU PLEKHG5 (11743358_a_at) / Fold change /veh PLEKHG5 (11743358_a_at) / RFU ZSCAN30 (11745921_a_at) / Fold change /veh ZSCAN30 (11745921_a_at) / RFU CMKLR1 (11741424_a_at) / Fold change /veh CMKLR1 (11741424_a_at) / RFU LOC101060620 /// MAPK8IP1 (11723275_at) / Fold change /veh LOC101060620 /// MAPK8IP1 (11723275_at) / RFU SPTSSB (11747773_x_at) / Fold change /veh SPTSSB (11747773_x_at) / RFU PRSS12 (11739890_at) / Fold change /veh PRSS12 (11739890_at) / RFU BIN1 (11741810_x_at) / Fold change /veh BIN1 (11741810_x_at) / RFU WNT11 (11732464_a_at) / Fold change /veh WNT11 (11732464_a_at) / RFU C10orf10 (11716521_a_at) / Fold change /veh C10orf10 (11716521_a_at) / RFU C5orf56 (11738089_at) / Fold change /veh C5orf56 (11738089_at) / RFU CYB561 (11721691_x_at) / Fold change /veh CYB561 (11721691_x_at) / RFU ANKRD19P (11752326_a_at) / Fold change /veh ANKRD19P (11752326_a_at) / RFU OR2T12 /// OR2T33 /// OR2T8 (11738714_s_at) / Fold change /veh OR2T12 /// OR2T33 /// OR2T8 (11738714_s_at) / RFU VCAN (11748164_a_at) / Fold change /veh VCAN (11748164_a_at) / RFU JSRP1 (11732532_at) / Fold change /veh JSRP1 (11732532_at) / RFU KRTAP10-11 (11738290_x_at) / Fold change /veh KRTAP10-11 (11738290_x_at) / RFU MYO3A (11730013_a_at) / Fold change /veh MYO3A (11730013_a_at) / RFU EBF3 (11725865_a_at) / Fold change /veh EBF3 (11725865_a_at) / RFU CAMK2N1 (11719241_x_at) / Fold change /veh CAMK2N1 (11719241_x_at) / RFU C5orf56 (11738088_a_at) / Fold change /veh C5orf56 (11738088_a_at) / RFU OLFML3 (11715873_a_at) / Fold change /veh OLFML3 (11715873_a_at) / RFU LOC100653217 /// NTM (11731650_a_at) / Fold change /veh LOC100653217 /// NTM (11731650_a_at) / RFU MAPK11 (11762145_a_at) / Fold change /veh MAPK11 (11762145_a_at) / RFU FIZ1 (11724087_x_at) / Fold change /veh FIZ1 (11724087_x_at) / RFU OASL (11726364_x_at) / Fold change /veh OASL (11726364_x_at) / RFU SOX15 (11748057_x_at) / Fold change /veh SOX15 (11748057_x_at) / RFU CD79A (11719716_a_at) / Fold change /veh CD79A (11719716_a_at) / RFU HIST1H1D (11736915_at) / Fold change /veh HIST1H1D (11736915_at) / RFU CASKIN2 (11723855_a_at) / Fold change /veh CASKIN2 (11723855_a_at) / RFU LOC730098 (11760151_x_at) / Fold change /veh LOC730098 (11760151_x_at) / RFU OR4N2 (11742367_at) / Fold change /veh OR4N2 (11742367_at) / RFU PRRT2 (11749266_a_at) / Fold change /veh PRRT2 (11749266_a_at) / RFU SNX32 (11753110_a_at) / Fold change /veh SNX32 (11753110_a_at) / RFU CDHR5 (11726645_a_at) / Fold change /veh CDHR5 (11726645_a_at) / RFU RCAN1 (11760418_a_at) / Fold change /veh RCAN1 (11760418_a_at) / RFU FAM167A (11723789_a_at) / Fold change /veh FAM167A (11723789_a_at) / RFU FAM26E (11764081_at) / Fold change /veh FAM26E (11764081_at) / RFU ISYNA1 (11749810_s_at) / Fold change /veh ISYNA1 (11749810_s_at) / RFU ACY1 (11761880_at) / Fold change /veh ACY1 (11761880_at) / RFU 11764098_at / Fold change /veh 11764098_at / RFU SAMD14 (11745864_x_at) / Fold change /veh SAMD14 (11745864_x_at) / RFU NPB (11741838_a_at) / Fold change /veh NPB (11741838_a_at) / RFU TMPRSS6 (11731388_a_at) / Fold change /veh TMPRSS6 (11731388_a_at) / RFU KRTAP10-2 (11738614_at) / Fold change /veh KRTAP10-2 (11738614_at) / RFU ARHGAP8 /// PRR5-ARHGAP8 (11727945_x_at) / Fold change /veh ARHGAP8 /// PRR5-ARHGAP8 (11727945_x_at) / RFU KRTAP5-7 /// NADSYN1 (11734609_at) / Fold change /veh KRTAP5-7 /// NADSYN1 (11734609_at) / RFU RASL12 (11751679_a_at) / Fold change /veh RASL12 (11751679_a_at) / RFU CDKN2B (11736163_a_at) / Fold change /veh CDKN2B (11736163_a_at) / RFU PRF1 (11729649_at) / Fold change /veh PRF1 (11729649_at) / RFU, ZNF638 /// ZNF638-IT1 / Fold change vs veh, ZNF638 /// ZNF638-IT1 / RFU, PANK3 / Fold change vs veh, PANK3 / RFU, SH3YL1 / Fold change vs veh, SH3YL1 / RFU, ZEB2 / Fold change vs veh, ZEB2 / RFU, NRIP1 / Fold change vs veh, NRIP1 / RFU, PTTG1IP / Fold change vs veh, PTTG1IP / RFU, CAPN2 / Fold change vs veh, CAPN2 / RFU, MED14 / Fold change vs veh, MED14 / RFU, SNORA58 / Fold change vs veh, SNORA58 / RFU, C1orf63 / Fold change vs veh, C1orf63 / RFU, LRRFIP1 / Fold change vs veh, LRRFIP1 / RFU, NDUFAF7 / Fold change vs veh, NDUFAF7 / RFU, SLC12A2 / Fold change vs veh, SLC12A2 / RFU, IBTK / Fold change vs veh, IBTK / RFU, ESF1 / Fold change vs veh, ESF1 / Fold change vs veh, TMEM50B / RFU, TAOK1 / Fold change vs veh, TAOK1 / RFU, ACBD3 / Fold change vs veh, ACBD3 / RFU, TMA16 / Fold change vs veh, TMA16 / RFU, RWDD3 / Fold change vs veh, RWDD3 / RFU, BCAT1 / Fold change vs veh, BCAT1 / RFU, EDEM3 / Fold change vs veh, EDEM3 / RFU, TMEM33 / Fold change vs veh, TMEM33 / RFU, WDR75 / Fold change vs veh, WDR75 / RFU, AHCTF1 / Fold change vs veh, AHCTF1 / RFU, TFRC / Fold change vs veh, TFRC / RFU, ZDHHC17 / Fold change vs veh, ZDHHC17 / RFU, NOM1 / Fold change vs veh, NOM1 / RFU, ARL8B / Fold change vs veh, ARL8B / RFU, ZBTB11 / Fold change vs veh, ZBTB11 / RFU, TAMM41 / Fold change vs veh, TAMM41 / RFU, KIAA1704 /// LOC100996395 / Fold change vs veh, KIAA1704 /// LOC100996395 / RFU, ING1 / Fold change vs veh, ING1 / RFU, TRMT61B / Fold change vs veh, TRMT61B / RFU, FUBP3 / Fold change vs veh, FUBP3 / RFU, TP53 / Fold change vs veh, TP53 / RFU, TNKS2 / Fold change vs veh, TNKS2 / RFU, ZFP14 / Fold change vs veh, ZFP14 / RFU, ACTR2 / Fold change vs veh, ACTR2 / RFU, PPP3R1 / Fold change vs veh, PPP3R1 / RFU, PIK3R1 / Fold change vs veh, PIK3R1 / RFU, HNRNPA1 / Fold change vs veh, HNRNPA1 / RFU, RNF170 / Fold change vs veh, RNF170 / RFU, ZNF28 / Fold change vs veh, ZNF28 / RFU, RNGTT / Fold change vs veh, RNGTT / RFU, OGT / Fold change vs veh, OGT / RFU, BRD1 / Fold change vs veh, BRD1 / RFU, MARS / Fold change vs veh, MARS / RFU, ZNF655 / Fold change vs veh, ZNF655 / RFU, FAHD1 / Fold change vs veh, FAHD1 / RFU, BDP1 / Fold change vs veh, BDP1 / RFU, LRRCC1 / Fold change vs veh, LRRCC1 / RFU, ARID1A / Fold change vs veh, ARID1A / RFU, ZNF146 / Fold change vs veh, ZNF146 / RFU, ZNF330 / Fold change vs veh, ZNF330 / RFU, GPN3 / Fold change vs veh, GPN3 / RFU, C9orf123 / Fold change vs veh, C9orf123 / RFU, N4BP2L2 / Fold change vs veh, N4BP2L2 / RFU, ARFIP1 / Fold change vs veh, ARFIP1 / RFU, FAM179B / Fold change vs veh, FAM179B / RFU, BCL10 / Fold change vs veh, BCL10 / RFU, UHRF1BP1L / Fold change vs veh, UHRF1BP1L / RFU, BET1 / Fold change vs veh, BET1 / RFU, CNOT2 / Fold change vs veh, CNOT2 / RFU, ZNF268 / Fold change vs veh, ZNF268 / Fold change vs veh, ZNF507 / RFU, DGCR2 / Fold change vs veh, DGCR2 / RFU, WDSUB1 / Fold change vs veh, WDSUB1 / Fold change vs veh, HSP90B1 /// MIR3652 / RFU, ADSS / Fold change vs veh, ADSS / RFU, GK / Fold change vs veh, GK / RFU, ZNF148 / Fold change vs veh, ZNF148 / RFU, TAF9 / Fold change vs veh, TAF9 / RFU, SLC1A5 / Fold change vs veh, SLC1A5 / RFU, SLMO2 / Fold change vs veh, SLMO2 / RFU, ABCC4 / Fold change vs veh, ABCC4 / RFU, LOC101060439 /// RAP1B / Fold change vs veh, LOC101060439 /// RAP1B / RFU, RFX7 / Fold change vs veh, RFX7 / RFU, GTPBP10 / Fold change vs veh, GTPBP10 / RFU, CNEP1R1 / Fold change vs veh, CNEP1R1 / RFU, BIVM-ERCC5 /// ERCC5 / Fold change vs veh, BIVM-ERCC5 /// ERCC5 / RFU, ILF3 / Fold change vs veh, ILF3 / RFU 11762660_at / Fold change /veh 11762660_at / RFU VCAN (11757783_s_at) / Fold change /veh VCAN (11757783_s_at) / RFU DDX43 (11728927_at) / Fold change /veh DDX43 (11728927_at) / RFU KRT8 (11758188_x_at) / Fold change /veh KRT8 (11758188_x_at) / RFU NKD1 (11759106_at) / Fold change /veh NKD1 (11759106_at) / RFU SRD5A1 (11742802_a_at) / Fold change /veh SRD5A1 (11742802_a_at) / RFU TPSAB1 /// TPSB2 (11721975_s_at) / Fold change /veh TPSAB1 /// TPSB2 (11721975_s_at) / RFU GSTM3 (11746129_a_at) / Fold change /veh GSTM3 (11746129_a_at) / RFU IL23R (11737362_x_at) / Fold change /veh IL23R (11737362_x_at) / RFU TMEM51 (11727254_a_at) / Fold change /veh TMEM51 (11727254_a_at) / RFU PIWIL2 (11732686_x_at) / Fold change /veh PIWIL2 (11732686_x_at) / RFU ORM1 (11744905_x_at) / Fold change /veh ORM1 (11744905_x_at) / RFU CCDC152 (11743942_at) / Fold change /veh CCDC152 (11743942_at) / RFU ECM1 (11717891_a_at) / Fold change /veh ECM1 (11717891_a_at) / RFU IL23R (11748794_a_at) / Fold change /veh IL23R (11748794_a_at) / RFU TNFAIP8L3 (11732012_x_at) / Fold change /veh TNFAIP8L3 (11732012_x_at) / RFU MBOAT4 (11741988_at) / Fold change /veh MBOAT4 (11741988_at) / RFU 11764193_at / Fold change /veh 11764193_at / RFU TMEM53 (11763286_at) / Fold change /veh TMEM53 (11763286_at) / RFU MAGEB2 (11727129_at) / Fold change /veh MAGEB2 (11727129_at) / RFU TMEM200A (11744735_a_at) / Fold change /veh TMEM200A (11744735_a_at) / RFU CCDC152 (11751479_a_at) / Fold change /veh CCDC152 (11751479_a_at) / RFU FAM211A (11726209_a_at) / Fold change /veh FAM211A (11726209_a_at) / RFU RGS16 (11746705_a_at) / Fold change /veh RGS16 (11746705_a_at) / RFU VCAN (11755009_s_at) / Fold change /veh VCAN (11755009_s_at) / RFU RHOB (11743442_s_at) / Fold change /veh RHOB (11743442_s_at) / RFU RGS16 (11720943_a_at) / Fold change /veh RGS16 (11720943_a_at) / RFU RGS16 (11720944_at) / Fold change /veh RGS16 (11720944_at) / RFU, VPS4B / Fold change vs veh, VPS4B / RFU, CREB1 / Fold change vs veh, CREB1 / RFU, DNAJC13 / Fold change vs veh, DNAJC13 / RFU, GNAQ / Fold change vs veh, GNAQ / RFU, CDK5R1 / Fold change vs veh, CDK5R1 / RFU, ZRANB3 / Fold change vs veh, ZRANB3 / RFU, CUL4A / Fold change vs veh, CUL4A / RFU, CCNY / Fold change vs veh, CCNY / RFU, UFL1 / Fold change vs veh, UFL1 / RFU, COG3 / Fold change vs veh, COG3 / RFU, DIAPH2 / Fold change vs veh, DIAPH2 / RFU, SKA2 / Fold change vs veh, SKA2 / RFU, AFF3 / Fold change vs veh, AFF3 / RFU, LMF1 / Fold change vs veh, LMF1 / RFU, IPO11 / Fold change vs veh, IPO11 / RFU, DFFB / Fold change vs veh, DFFB / RFU, FOXP1 / Fold change vs veh, FOXP1 / RFU, CARD8 / Fold change vs veh, CARD8 / RFU, STRN3 / Fold change vs veh, STRN3 / RFU, ADK / Fold change vs veh, ADK / RFU, RASSF2 / Fold change vs veh, RASSF2 / RFU, WIPF1 / Fold change vs veh, WIPF1 / RFU, LARP1B / Fold change vs veh, LARP1B / RFU, RASA1 / Fold change vs veh, RASA1 / RFU, RB1 / Fold change vs veh, RB1 / RFU, PPFIA1 / Fold change vs veh, PPFIA1 / RFU, MAT2A / Fold change vs veh, MAT2A / RFU, CCT5 / Fold change vs veh, CCT5 / RFU, WDR92 / Fold change vs veh, WDR92 / RFU, CUX1 / Fold change vs veh, CUX1 / RFU, TTC7A / Fold change vs veh, TTC7A / RFU, TMEM135 / Fold change vs veh, TMEM135 / RFU, DEPTOR / Fold change vs veh, DEPTOR / RFU, CPM / Fold change vs veh, CPM / RFU, DNAJB6 / Fold change vs veh, DNAJB6 / RFU, CACNA2D3 / Fold change vs veh, CACNA2D3 / RFU, DTX4 / Fold change vs veh, DTX4 / RFU, TFCP2 / Fold change vs veh, TFCP2 / RFU, GMCL1 /// GMCL1P1 / Fold change vs veh, GMCL1 /// GMCL1P1 / RFU, AEBP2 / Fold change vs veh, AEBP2 / RFU, SNHG1 /// SNORD22 /// SNORD25 /// SNORD26 /// SNORD27 /// SNORD28 /// SNORD29 /// SNORD31 / Fold change vs veh, SNHG1 /// SNORD22 /// SNORD25 /// SNORD26 /// SNORD27 /// SNORD28 /// SNORD29 /// SNORD31 / Fold change (Aza/veh), C12orf56 (ProbeSet 11735607_a_at) / Fold change (ACY-1035/veh), C12orf56 (ProbeSet 11735607_a_at) / Fold change (Aza/veh), FGFR1OP (ProbeSet 11751329_s_at) / Fold change (ACY-1035/veh), FGFR1OP (ProbeSet 11751329_s_at) / Fold change (Aza/veh), VPS36 (ProbeSet 11739960_a_at) / Fold change (ACY-1035/veh), VPS36 (ProbeSet 11739960_a_at) / RFU SYPL1 (11715823_x_at) / Fold change /veh SYPL1 (11715823_x_at) / RFU IGFBP7 (11715501_s_at) / Fold change /veh IGFBP7 (11715501_s_at) / RFU REEP3 (11722064_at) / Fold change /veh REEP3 (11722064_at) / RFU IGLL1 (11728026_x_at) / Fold change /veh IGLL1 (11728026_x_at): dose or concentration left out as unconfirmed
Settings: MV-4-11 cells, 48 hours

Nc1ccc(-c2cccs2)cc1NC(=O)c1ccc2c(c1)cc(C1CC1)n2CCN1CCOCC1 [ACY-1035]
RFU KRT8 (11758183_x_at): 18.67 RFU

Reference: article PMC5218480 (PLoS ONE, 2017)
